# Calls of active or inactive are those of the source. Cut-off read from the data, not from the text of the source, for most assays here: actives have a measured EC50 and inactives only a lower limit.
# Tests used:
# [1] = cytotoxicity in HEK-293T NF-kB-Luc cells, dose response, cytotoxicity control for B/T-cell NF-kB inhibitor project, cell-based, uHTS hits (AID 489019); type: functional;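 note: IC50 reflects cytotoxicity as loss of cell viability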
# [2] = luciferase reporter signal reduction – luminescence, H4-C neuroglioblastoma cells, dose response (AID 2458); type: functional, cell-based;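 note: H4 neuroglioblastoma cells stably carrying a luciferase reporter gene fusion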
# Jurkat = test: antigen receptor-induced NF-kB inhibitors, dose response, Jurkat, luciferase reporter, luminescence, B- and T-cell (AID 489004); type: functional, cell-based; conditions: Homo sapiens;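 note: NF-kB luciferase reporter Jurkat cells stimulated with PMA plus ionomycin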
# BJ [3] = test: cells; type: functional, cell-based; conditions: Homo sapiens
# BJ [4] = test: cytotoxicity toward BJ-TERT fibroblasts, dose response, cell-based, RAS-independent, luminescence (AID 1933); type: functional; conditions: Homo sapiens
# [5] = cytotoxicity toward DRD oncogenic fibroblasts, dose response, cell-based, non-viral oncogenic, luminescence (AID 1934); type: functional; conditions: Homo sapiens
# [6] = inhibitors of firefly luciferase expression or activity, dose response, H4 neuroglioma cells, luminescence (AID 1990); type: functional, cell-based
# Paired box protein Pax-8 = Paired box protein Pax-8 (Homo sapiens, UniProt Q06710); test: inhibitors of PAX8-driven TPO luciferase reporter, dose response, RMG-I cells, cherry-pick (AID 687027); type: functional, cell-based;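 note: luciferase reporter driven by Pax8 target thyroperoxidase promoter measured by SteadyGlo luminescence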
# Paired box protein Pax-8, sequence (Q06710 whole entry): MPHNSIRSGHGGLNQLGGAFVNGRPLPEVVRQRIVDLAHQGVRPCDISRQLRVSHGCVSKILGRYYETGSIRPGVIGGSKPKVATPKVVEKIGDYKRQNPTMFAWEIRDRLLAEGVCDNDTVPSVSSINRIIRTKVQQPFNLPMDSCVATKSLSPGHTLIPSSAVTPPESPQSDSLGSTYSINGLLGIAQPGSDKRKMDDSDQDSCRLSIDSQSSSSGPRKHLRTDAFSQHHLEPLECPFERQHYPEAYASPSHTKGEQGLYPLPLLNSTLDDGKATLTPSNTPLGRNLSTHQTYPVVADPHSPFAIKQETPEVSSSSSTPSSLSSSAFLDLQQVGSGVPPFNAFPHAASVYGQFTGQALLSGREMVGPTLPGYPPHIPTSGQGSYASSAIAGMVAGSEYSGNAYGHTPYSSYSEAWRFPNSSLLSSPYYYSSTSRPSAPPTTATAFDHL
# BJ [7] = test: cytotoxicity toward BJ-TERT-LT-ST fibroblasts, dose response, cell-based, RAS-independent, luminescence (AID 1935); type: functional; conditions: Homo sapiens;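 note: BJ fibroblasts immortalized with TERT plus LT and ST oncogenes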
# [8] = inhibitors of SNCA 5'UTR-driven translation, confirmation, luminescence, H4 neuroglioblastoma cells, dose confirmation (AID 2454); type: functional, cell-based;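 note: H4 neuroglioblastoma cells carrying an alpha-synuclein 5'UTR luciferase reporter; potency for inhibition of the luciferase signal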
# cells [9] = type: functional, cell-based
# Cytochrome P450 1A2 = molecular target: T1, Cytochrome P450 1A2 (Homo sapiens, UniProt P05177);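 note: PubChem cytochrome P450 panel assay, CYP1A2 panel member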
# T1 sequence (P05177 whole entry): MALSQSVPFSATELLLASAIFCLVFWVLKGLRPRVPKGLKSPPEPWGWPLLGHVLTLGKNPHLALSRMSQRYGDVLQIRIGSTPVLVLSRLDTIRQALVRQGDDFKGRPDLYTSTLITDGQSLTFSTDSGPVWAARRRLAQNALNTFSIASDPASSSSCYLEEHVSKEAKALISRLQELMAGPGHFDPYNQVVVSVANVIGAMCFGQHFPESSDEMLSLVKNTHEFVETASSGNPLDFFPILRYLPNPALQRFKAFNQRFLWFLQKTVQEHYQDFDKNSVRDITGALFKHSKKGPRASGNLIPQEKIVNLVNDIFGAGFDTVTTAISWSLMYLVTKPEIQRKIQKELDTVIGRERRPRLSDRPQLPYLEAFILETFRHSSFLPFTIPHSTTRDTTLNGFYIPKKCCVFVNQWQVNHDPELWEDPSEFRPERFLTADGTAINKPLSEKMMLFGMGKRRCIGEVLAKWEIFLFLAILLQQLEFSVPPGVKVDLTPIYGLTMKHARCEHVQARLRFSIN
# [10] = inhibitors of SNCA 5'UTR-driven reporter translation, confirmation, H4 neuroglioma cells, luminescence (AID 1988); type: functional, cell-based
# [11] = insulin promoter down-regulators in MIN6 cells, imaging, high-content screening, mouse beta cells (AID 1628); type: functional
# Exodeoxyribonuclease V = Exodeoxyribonuclease V (Escherichia coli (strain K12), UniProt P04993+P07648+P08394); test: E. coli RecBCD inhibitors, dose response, counter-screen for AddAB inhibitor project, absorbance, V66 E. coli, mutant T4 phage (AID 492957); type: functional, cell-based, Escherichia coli str. K-12 substr. MG1655
# cells [12] = type: functional, cell-based; remark: listed apart in the source
# [13] = cytotoxicity in MIN6 insulinoma cells, dose response, cytotoxicity control, cell-based, mouse insulinoma (AID 2122); type: functional;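 note: confirmatory high-throughput counterscreen run to flag cytotoxic compounds; mouse MIN-6 beta cells carrying an insulin promoter eGFP reporter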
# [14] = NIH-3T3 fibroblast cytotoxicity, dose response, cytotoxicity control, cell-based, fluorescence, Alamar Blue, secondary assay (AID 2327); type: functional;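 note: NIH-3T3 mouse fibroblasts cultured with fluconazole at 8 µg/mL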
# HEK293 = test: inhibitors of LMP1-driven NF-kB reporter, dose response, cell-based, HEK293, luciferase, cherry-pick (AID 588343); type: functional; conditions: Homo sapiens
# [15] = Counterscreen for AddAB inhibitors: absorbance-based bacterial cell-based high throughput dose response assay for inhibitors of bacterial viability. [Related pubchem assays (depositor defined):AID435030, AID449728, AID449731, AID488942, AID488955, AID488956]; type: functional
# [16] = molecular target: Heat shock protein HSP 90-alpha (Homo sapiens, UniProt P07900); type: functional, organism-based
# [17] = cytotoxicity in KRAS-transformed pancreatic duct cells, primary screen, cell-based, fluorescence, HTS (AID 431); type: functional; conditions: Homo sapiens;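 note: cell line used: HPDE-C7K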
# [18] = molecular target: T2, Serine/threonine-protein phosphatase (Candida dubliniensis (strain CD36 / CBS 7987 / NCPF 3949 / NRRLY-17841) (Yeast), UniProt B9W6M3); test: calcineurin pathway inhibitors in yeast reporter, dose response, S. cerevisiae, CDRE-lacZ, luminescence, secondary (AID 2388); type: functional, cell-based;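 note: yeast reporter cells carrying a calcineurin-responsive lacZ construct stimulated with calcium chloride; luminescent beta-galactosidase reporter signal in whole cells rather than isolated phosphatase activity; potency for inhibition where a drop in reporter signal means calcineurin blockade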
# T2 sequence (B9W6M3 whole entry): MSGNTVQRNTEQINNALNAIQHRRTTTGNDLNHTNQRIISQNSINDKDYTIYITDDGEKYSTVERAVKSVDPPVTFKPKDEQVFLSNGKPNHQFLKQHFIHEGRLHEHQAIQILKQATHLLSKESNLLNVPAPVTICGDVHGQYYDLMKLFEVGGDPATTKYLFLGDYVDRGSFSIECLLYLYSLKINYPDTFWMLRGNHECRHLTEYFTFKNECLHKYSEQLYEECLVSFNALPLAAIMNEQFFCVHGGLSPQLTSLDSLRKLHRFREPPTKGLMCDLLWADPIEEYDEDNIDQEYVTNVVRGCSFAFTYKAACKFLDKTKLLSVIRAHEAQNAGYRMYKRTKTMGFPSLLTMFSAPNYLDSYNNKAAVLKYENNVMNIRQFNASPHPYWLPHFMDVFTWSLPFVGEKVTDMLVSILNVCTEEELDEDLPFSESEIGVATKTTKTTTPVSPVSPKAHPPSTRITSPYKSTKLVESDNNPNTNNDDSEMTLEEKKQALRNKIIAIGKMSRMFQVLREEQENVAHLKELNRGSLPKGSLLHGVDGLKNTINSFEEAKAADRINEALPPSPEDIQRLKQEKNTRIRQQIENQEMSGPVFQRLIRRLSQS
# [19] = molecular target: ATP-dependent molecular chaperone HSP82 (Candida albicans (strain WO-1) (Yeast), UniProt C4YTQ8); test: loss of DOC-induced GRE-beta-galactosidase reporter signal, dose response, Hsp90 inhibitor project, S. cerevisiae, luminescence (AID 2400); type: functional, cell-based;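 note: beta-galactosidase luminescence from glucocorticoid response element reporter as proxy for Hsp90 function; inhibitor potency where signal loss means Hsp90 inhibition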
# ATP-dependent molecular chaperone HSP82, sequence (C4YTQ8 whole entry): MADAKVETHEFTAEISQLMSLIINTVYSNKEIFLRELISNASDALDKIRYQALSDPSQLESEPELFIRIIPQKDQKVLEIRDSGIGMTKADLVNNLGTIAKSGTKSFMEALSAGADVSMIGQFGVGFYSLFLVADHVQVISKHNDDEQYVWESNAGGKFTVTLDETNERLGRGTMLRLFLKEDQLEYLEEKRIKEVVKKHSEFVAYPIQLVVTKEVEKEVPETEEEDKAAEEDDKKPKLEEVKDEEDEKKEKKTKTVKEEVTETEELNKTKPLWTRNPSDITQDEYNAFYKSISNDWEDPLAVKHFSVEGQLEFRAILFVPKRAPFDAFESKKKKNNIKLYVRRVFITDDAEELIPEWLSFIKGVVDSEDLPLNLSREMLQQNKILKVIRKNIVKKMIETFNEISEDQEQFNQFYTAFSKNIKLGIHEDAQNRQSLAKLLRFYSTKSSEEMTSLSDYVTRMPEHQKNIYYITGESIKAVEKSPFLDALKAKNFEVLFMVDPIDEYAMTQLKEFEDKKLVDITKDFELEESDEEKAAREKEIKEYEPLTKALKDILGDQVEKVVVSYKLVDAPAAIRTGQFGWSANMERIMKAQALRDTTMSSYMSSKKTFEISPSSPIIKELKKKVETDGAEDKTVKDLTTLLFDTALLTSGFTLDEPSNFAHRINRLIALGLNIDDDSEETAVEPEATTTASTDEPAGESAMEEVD
# Vero = test: cells; type: functional, cell-based; conditions: Chlorocebus sabaeus
# [20] = tested on: Streptococcus sp. 'group A'; test: growth inhibition of control SK(-) GAS strain, dose response, counter-screen for streptokinase expression inhibitor project, luminescence, kanamycin, BacTiterGlo, confirmation (AID 1900); type: functional, organism-based
# Streptococcus = test: Group A Streptococcus viability loss, dose response, counter-screen for streptokinase expression inhibitor project, luminescence, BacTiterGlo (AID 1915); type: functional, organism-based;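 note: potency for reduction of bacterial viability or growth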
# cells [21] = type: functional, cell-based; remark: listed apart in the source
# [22] = cytotoxicity in HPDE-C7 cells, cell-based, fluorescence, HTS (AID 430); type: functional; conditions: Homo sapiens
# [23] = C. albicans growth with fluconazole, confirmation, fluorescence, retest (AID 2467); type: functional, cell-based
# Keap1/Nrf2 = Keap1/Nrf2 (Homo sapiens, UniProt Q14145); test: Keap1-Nrf2 protein-protein interaction inhibitors, dose response, biochemical, fluorescence polarization, cherry-picked samples (AID 588683)
# Keap1/Nrf2, sequence (Q16236 whole entry): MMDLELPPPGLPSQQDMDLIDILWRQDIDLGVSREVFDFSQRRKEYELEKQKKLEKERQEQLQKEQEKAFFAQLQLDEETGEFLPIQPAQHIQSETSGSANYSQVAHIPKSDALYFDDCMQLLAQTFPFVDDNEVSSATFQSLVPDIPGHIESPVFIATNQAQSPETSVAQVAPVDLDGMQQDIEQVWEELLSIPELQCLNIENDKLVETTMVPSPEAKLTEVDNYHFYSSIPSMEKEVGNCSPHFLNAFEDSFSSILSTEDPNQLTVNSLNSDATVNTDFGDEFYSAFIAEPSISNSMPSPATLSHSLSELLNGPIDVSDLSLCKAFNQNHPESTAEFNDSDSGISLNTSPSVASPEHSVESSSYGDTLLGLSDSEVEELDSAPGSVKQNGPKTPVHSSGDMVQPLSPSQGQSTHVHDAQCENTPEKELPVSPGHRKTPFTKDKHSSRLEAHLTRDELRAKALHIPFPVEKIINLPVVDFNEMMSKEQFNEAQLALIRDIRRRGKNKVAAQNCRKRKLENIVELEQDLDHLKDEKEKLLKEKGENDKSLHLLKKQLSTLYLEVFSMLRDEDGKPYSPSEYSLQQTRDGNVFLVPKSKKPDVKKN
# Keap1/Nrf2, sequence (Q14145 whole entry): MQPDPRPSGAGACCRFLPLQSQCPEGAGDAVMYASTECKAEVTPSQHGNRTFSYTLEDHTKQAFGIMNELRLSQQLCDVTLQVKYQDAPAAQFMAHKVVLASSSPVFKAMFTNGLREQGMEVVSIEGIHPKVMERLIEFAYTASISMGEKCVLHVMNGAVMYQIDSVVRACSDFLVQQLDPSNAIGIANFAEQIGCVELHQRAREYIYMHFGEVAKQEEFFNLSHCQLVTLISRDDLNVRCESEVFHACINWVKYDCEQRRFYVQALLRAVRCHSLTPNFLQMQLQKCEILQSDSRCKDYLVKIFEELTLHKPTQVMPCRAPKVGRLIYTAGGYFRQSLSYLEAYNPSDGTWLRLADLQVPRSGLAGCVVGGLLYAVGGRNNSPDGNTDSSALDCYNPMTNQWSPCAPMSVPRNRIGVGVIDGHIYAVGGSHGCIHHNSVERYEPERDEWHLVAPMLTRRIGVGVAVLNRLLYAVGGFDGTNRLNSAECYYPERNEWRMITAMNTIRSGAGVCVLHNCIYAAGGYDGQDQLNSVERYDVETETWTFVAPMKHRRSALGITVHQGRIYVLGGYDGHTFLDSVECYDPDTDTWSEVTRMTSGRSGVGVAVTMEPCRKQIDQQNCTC
# ORF 73 = molecular target: T3, ORF 73 (Human herpesvirus 8, UniProt O40947); test: inhibitors of C-LANA binding to LBS DNA, dose response, biochemical, fluorescence polarization, cherry-picked samples (AID 504725); parameters: species or system Human gammaherpesvirus 8;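 note: fluorescence polarization of a labeled DNA duplex reporting LANA DNA binding; potency is for inhibitors that block LANA binding to the DNA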
# T3 sequence (O40947 whole entry): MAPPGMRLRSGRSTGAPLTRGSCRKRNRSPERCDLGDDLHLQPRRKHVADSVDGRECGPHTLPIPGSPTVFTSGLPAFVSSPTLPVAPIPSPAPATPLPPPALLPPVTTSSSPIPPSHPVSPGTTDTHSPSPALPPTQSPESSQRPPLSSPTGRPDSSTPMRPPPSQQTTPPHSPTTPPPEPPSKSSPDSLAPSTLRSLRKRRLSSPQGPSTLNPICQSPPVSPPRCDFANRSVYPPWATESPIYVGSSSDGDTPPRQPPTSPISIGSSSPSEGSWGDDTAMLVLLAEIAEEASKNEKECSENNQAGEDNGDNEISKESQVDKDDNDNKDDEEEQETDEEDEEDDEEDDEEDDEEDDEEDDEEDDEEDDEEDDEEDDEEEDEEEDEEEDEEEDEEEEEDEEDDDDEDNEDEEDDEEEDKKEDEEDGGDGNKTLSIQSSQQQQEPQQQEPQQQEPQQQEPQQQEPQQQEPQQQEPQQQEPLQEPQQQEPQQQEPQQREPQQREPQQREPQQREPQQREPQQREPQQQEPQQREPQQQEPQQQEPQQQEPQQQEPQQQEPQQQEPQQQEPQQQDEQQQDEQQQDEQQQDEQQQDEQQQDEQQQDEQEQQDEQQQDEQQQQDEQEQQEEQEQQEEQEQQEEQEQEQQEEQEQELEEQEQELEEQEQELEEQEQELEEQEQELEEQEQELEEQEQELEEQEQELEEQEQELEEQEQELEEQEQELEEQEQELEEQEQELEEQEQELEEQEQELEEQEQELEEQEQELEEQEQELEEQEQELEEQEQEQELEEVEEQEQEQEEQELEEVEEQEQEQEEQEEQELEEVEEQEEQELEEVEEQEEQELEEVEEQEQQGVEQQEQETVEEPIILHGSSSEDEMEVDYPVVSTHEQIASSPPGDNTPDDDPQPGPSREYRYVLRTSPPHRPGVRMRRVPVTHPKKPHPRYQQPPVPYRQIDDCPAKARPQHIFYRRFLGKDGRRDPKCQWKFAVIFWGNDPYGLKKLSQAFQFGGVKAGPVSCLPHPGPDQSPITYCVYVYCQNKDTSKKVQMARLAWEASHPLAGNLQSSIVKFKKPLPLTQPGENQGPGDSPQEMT
# [24] = molecular target: Beta-adrenergic receptor kinase 1 (Homo sapiens, UniProt P25098); test: GRK2 inhibitors displacing RNA aptamer, dose response, biochemical, flow cytometry beads, FAM-aptamer, powder set 1 (AID 588720)
# Beta-adrenergic receptor kinase 1, sequence (P25098 whole entry): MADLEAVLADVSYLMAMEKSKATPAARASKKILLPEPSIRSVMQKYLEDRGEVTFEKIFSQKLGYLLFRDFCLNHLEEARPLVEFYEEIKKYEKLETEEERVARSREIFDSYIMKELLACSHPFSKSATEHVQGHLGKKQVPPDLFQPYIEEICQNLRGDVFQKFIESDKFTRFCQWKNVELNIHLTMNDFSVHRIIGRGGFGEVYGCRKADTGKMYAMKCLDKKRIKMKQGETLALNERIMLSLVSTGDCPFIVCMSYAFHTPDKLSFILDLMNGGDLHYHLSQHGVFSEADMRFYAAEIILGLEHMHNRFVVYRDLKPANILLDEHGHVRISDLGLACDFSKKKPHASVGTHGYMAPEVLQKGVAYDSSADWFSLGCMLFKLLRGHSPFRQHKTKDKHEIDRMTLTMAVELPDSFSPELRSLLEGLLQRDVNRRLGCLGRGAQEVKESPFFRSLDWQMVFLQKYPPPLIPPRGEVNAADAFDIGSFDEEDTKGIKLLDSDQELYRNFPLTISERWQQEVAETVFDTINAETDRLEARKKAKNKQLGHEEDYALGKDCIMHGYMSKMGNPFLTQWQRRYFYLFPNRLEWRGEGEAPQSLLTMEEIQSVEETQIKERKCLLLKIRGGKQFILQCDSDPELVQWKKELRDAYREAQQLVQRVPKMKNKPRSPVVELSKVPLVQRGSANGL
# Cytochrome P450 3A4 = Cytochrome P450 3A4 (Homo sapiens, UniProt P08684);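 note: CYP3A4 tested as one member of a cytochrome P450 panel screen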
# Cytochrome P450 3A4, sequence (P08684 whole entry, the tested form may be a part): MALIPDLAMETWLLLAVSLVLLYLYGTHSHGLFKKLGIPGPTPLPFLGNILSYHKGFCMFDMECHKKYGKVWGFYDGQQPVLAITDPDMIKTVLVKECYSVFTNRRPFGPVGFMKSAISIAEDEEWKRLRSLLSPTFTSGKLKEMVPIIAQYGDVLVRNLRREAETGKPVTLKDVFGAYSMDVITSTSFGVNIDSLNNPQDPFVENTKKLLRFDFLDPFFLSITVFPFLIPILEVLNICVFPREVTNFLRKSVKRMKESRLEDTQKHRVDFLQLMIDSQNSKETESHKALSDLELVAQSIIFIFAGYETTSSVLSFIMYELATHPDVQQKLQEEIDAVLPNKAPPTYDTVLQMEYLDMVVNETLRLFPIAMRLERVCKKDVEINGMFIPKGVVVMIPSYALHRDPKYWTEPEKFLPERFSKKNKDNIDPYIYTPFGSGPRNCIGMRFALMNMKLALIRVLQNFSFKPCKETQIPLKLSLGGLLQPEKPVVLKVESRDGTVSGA
# [25] = molecular target: T4, Carboxy-terminal domain RNA polymerase II polypeptide A small phosphatase 1 (Homo sapiens, UniProt Q9GZU7); test: inhibitors of CTDSP1, concentration-response testing, biochemical assay, absorbance-based, actives from ultra-high-throughput screening (AID 540297); type: functional
# T4 sequence (Q9GZU7 whole entry): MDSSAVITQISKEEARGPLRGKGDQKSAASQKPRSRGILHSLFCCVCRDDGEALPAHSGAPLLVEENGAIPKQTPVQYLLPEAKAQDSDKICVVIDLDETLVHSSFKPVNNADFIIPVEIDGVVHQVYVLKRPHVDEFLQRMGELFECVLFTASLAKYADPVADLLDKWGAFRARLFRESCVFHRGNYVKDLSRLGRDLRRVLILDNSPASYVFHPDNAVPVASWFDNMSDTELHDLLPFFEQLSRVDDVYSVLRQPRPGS
smiles,measurement,setting,value
O=C(c1ccc(Br)cc1)c1cc([N+](=O)[O-])ccc1N1CCCCC1,IC50,[1],> 80 µM (inactive)
same,EC50,[2],0.892 µM (active)
same,IC50,Jurkat,> 80 µM (inactive)
same,EC50,BJ [3],1.12 µM (inconclusive)
same,EC50,BJ [4],0.697 µM (active)
same,EC50,[5],0.694 µM (active)
same,EC50,[6],0.623 µM (active)
same,AC50,Paired box protein Pax-8,2.73 µM (active)
same,EC50,BJ [7],0.464 µM (active)
same,EC50,[8],> 12 µM (inconclusive)
same,EC50,cells [9],1.49 µM (active)
same,AC50,Cytochrome P450 1A2,2 µM (inconclusive)
same,EC50,[10],< 0.1 µM (active)
Oc1c(C(Nc2nc3ccccc3s2)c2ccco2)ccc2cccnc12 (stereo unspecified),IC50,[11],1.21 µM (active)
same,IC50,Exodeoxyribonuclease V,> 119 µM (inactive)
same,EC50,cells [12],9.09 µM (active)
same,IC50,[13],0.896 µM (active)
same,EC50,[14],12.9 µM (active)
same,AC50,HEK293,6.93 µM (active)
same,IC50,[15],> 119 µM (inactive)
same,AC50,[16],24.1 µM (active)
same,EC50,[17],6.19 µM (active)
same,EC50,[18],> 180 µM (inactive)
same,EC50,[19],33.4 µM (active)
same,IC50,Vero,> 25 µM (active)
same,EC50,[20],1.76 µM (active)
same,EC50,Streptococcus,5.98 µM (active)
same,EC50,cells [21],> 350 µM (not active)
same,EC50,[22],8.6 µM (active)
same,EC50,[23],0.854 µM (active)
Cc1nc(Cl)c2c(n1)N=C1CCCC(O)=C1O2,AC50,Keap1/Nrf2,15.1 µM (active)
same,AC50,ORF 73,8.8 µM (active)
O=C(CCS(=O)(=O)c1ccc(Br)cc1)NCCc1ccc(Cl)cc1,EC50,[24],7.06 µM (active)
COCC(=O)N1CCC2(CC1)CN(C(c1ccccc1)c1ccccc1)C2,AC50,Cytochrome P450 3A4,inconclusive
O=C(CCS(=O)(=O)c1ccc(Br)cc1)NCc1cccs1,EC50,[24],1.79 µM (active)
same,IC50,[25],48 µM (active)

# From ChEMBL document CHEMBL1201862, “PubChem BioAssay data set” (2004)
